{
  "source": "patent US7361668B2",
  "about": "(priority 2001, dated 2008)",
  "data": [
    {"target": "T1, human recombinant m3 receptor (Homo sapiens, UniProt P20309)", "T1 construct": "expressed in transfected cells; host or cells: CHO cells (membrane preparation)", "T1 sequence (P20309 whole entry)": "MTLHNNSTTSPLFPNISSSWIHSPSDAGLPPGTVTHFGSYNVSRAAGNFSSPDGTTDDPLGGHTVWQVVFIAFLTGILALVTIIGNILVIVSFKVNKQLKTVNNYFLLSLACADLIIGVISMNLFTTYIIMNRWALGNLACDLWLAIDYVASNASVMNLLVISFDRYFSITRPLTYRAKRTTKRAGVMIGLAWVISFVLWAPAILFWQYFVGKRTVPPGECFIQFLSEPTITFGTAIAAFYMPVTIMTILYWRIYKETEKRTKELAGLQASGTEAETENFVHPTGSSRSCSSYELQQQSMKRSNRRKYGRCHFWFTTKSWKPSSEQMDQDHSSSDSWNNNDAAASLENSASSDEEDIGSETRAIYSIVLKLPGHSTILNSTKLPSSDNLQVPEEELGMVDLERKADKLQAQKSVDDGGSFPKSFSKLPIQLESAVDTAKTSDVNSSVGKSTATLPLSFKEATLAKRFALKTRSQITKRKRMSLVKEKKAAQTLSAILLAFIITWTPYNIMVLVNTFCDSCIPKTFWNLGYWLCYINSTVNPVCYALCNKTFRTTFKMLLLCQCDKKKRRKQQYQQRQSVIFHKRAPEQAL", "format": "binding", "settings": "not given", "values": [
      {"smiles": "OC(C#CC1(F)CN2CCC1CC2)(c1ccccc1)C1CCCCC1", "note": "(stereo not drawn) [Compound 111, 1-cyclohexyl-3-(3-fluoro-1-azabicyclo[2.2.2]oct-3-yl)-1-phenylprop-2-yn-1-ol]", "affinity (in words)": "High affinities"},
      {"smiles": "CO[C@]1(C#CC(O)(c2cccs2)C2CCCCC2)CN2CCC1CC2", "note": "(stereo partly drawn) [Compound 115, 1-cyclohexyl-3-[(3R)-3-methoxy-1-azabicyclo[2.2.2]oct-3-yl]-1-(2-thienyl)-2-propyn-1-ol]", "affinity (in words)": "High affinities"},
      {"smiles": "CO[C@]1(C#C[C@@](O)(c2ccccc2)C2CCCCCC2)CN2CCC1CC2", "note": "[Compound 118, (1S)-1-cycloheptyl-3-[(3R)-3-methoxy-1-azabicyclo[2.2.2]oct-3-yl]-1-phenyl-2-propyn-1-ol]", "affinity (in words)": "High affinities"},
      {"smiles": "CO[C@]1(C#CC(O)(c2ccccc2)C2CSCCSC2)CN2CCC1CC2", "note": "(stereo partly drawn) [Compound 172, 1-(1,4-dithiepan-6-yl)-3-[(3R)-3-methoxy-1-azabicyclo[2.2.2]oct-3-yl]-1-phenyl-2-propyn-1-ol]", "affinity (in words)": "High affinities"},
      {"smiles": "CO[C@]1(C#CC(O)(c2cccs2)C2CCCCCC2)CN2CCC1CC2", "note": "(stereo partly drawn) [Compound 123, 1-cycloheptyl-3-[(3R)-3-methoxy-1-azabicyclo[2.2.2]oct-3-yl]-1-(2-thienyl)-2-propyn-1-ol]", "affinity (in words)": "High affinities"},
      {"smiles": "CO[C@]1(C#CC(O)(c2ccccc2)c2ccc3c(c2)CCC3)CN2CCC1CC2", "note": "(stereo partly drawn) [Compound 80, 1-(2,3-dihydro-1H-inden-5-yl)-3-[(3R)-3-methoxy-1-azabicyclo[2.2.2]oct-3-yl]-1-phenyl-2-propyn-1-ol]", "affinity (in words)": "High affinities"},
      {"smiles": "CO[C@]1(C#CC(O)(c2ccc(F)cc2)c2cccnc2F)CN2CCC1CC2", "note": "(stereo partly drawn) [Compound 141, 1-(4-fluorophenyl)-1-(2-fluoro-3-pyridinyl)-3-[(3R)-3-methoxy-1-azabicyclo[2.2.2]oct-3-yl]-2-propyn-1-ol]", "affinity (in words)": "High affinities"},
      {"smiles": "CO[C@]1(C#CC(O)(c2cccnc2)C2CCCCCC2)CN2CCC1CC2", "note": "(stereo partly drawn) [Compound 122, 1-cycloheptyl-3-[(3R)-3-methoxy-1-azabicyclo[2.2.2]oct-3-yl]-1-(3-pyridinyl)-2-propyn-1-ol]", "affinity (in words)": "High affinities"},
      {"smiles": "CO[C@]1(C#CC(O)(c2ccccn2)c2ccc(Cl)s2)CN2CCC1CC2", "note": "(stereo partly drawn) [Compound 190, 1-(5-chloro-2-thienyl)-3-[(3R)-3-methoxy-1-azabicyclo[2.2.2]oct-3-yl]-1-(2-pyridinyl)-2-propyn-1-ol]", "affinity (in words)": "High affinities"},
      {"smiles": "CO[C@]1(C#CC(O)(c2ccc(F)cc2)c2ccc(F)nc2)CN2CCC1CC2", "note": "(stereo partly drawn) [Compound 139, 1-(4-fluorophenyl)-1-(6-fluoro-3-pyridinyl)-3-[(3R)-3-methoxy-1-azabicyclo[2.2.2]oct-3-yl]-2-propyn-1-ol]", "affinity (in words)": "High affinities"},
      {"smiles": "COC1(C#CC(O)(c2ccccc2)C2CC3C=CC2C3)CN2CCC1CC2", "note": "(stereo not drawn) [Compound 166, 1-bicyclo[2.2.1]hept-5-en-2-yl-3-(3-methoxy-1-azabicyclo[2.2.2]oct-3-yl)-1-phenyl-2-propyn-1-ol]", "affinity (in words)": "High affinities"},
      {"smiles": "CO[C@]1(C#C[C@](O)(c2ccccc2)C2CCCCCC2)CN2CCC1CC2", "note": "[Compound 117, (1R)-1-cycloheptyl-3-[(3R)-3-methoxy-1-azabicyclo[2.2.2]oct-3-yl]-1-phenyl-2-propyn-1-ol]", "affinity (in words)": "High affinities"},
      {"smiles": "CO[C@]1(C#CC(O)(CC(C)(C)C)c2cccs2)CN2CCC1CC2", "note": "(stereo partly drawn) [Compound 185, 1-[(3R)-3-methoxy-1-azabicyclo[2.2.2]oct-3-yl]-5,5-dimethyl-3-(2-thienyl)-1-hexyn-3-ol]", "affinity (in words)": "High affinities"},
      {"smiles": "CO[C@]1(C#CC(O)(c2ccccc2)C2CCC=CCC2)CN2CCC1CC2", "note": "(stereo partly drawn) [Compound 126, 1-(4-cyclohepten-1-yl)-3-[(3R)-3-methoxy-1-azabicyclo[2.2.2]oct-3-yl]-1-phenyl-2-propyn-1-ol]", "affinity (in words)": "High affinities"},
      {"smiles": "CO[C@]1(C#C[C@](O)(c2ccccc2)C2CCCCCC2)C[N+]2(C)CCC1CC2.[I-]", "note": "[Compound 119, (3R)-3-[(3R)-3-cycloheptyl-3-hydroxy-3-phenyl-1-propynyl]-3-methoxy-1-methyl-1-azoniabicyclo[2.2.2]octane iodide]", "affinity (in words)": "High affinities"},
      {"smiles": "CO[C@]1(C#CC(O)(c2cccnc2F)C2CCCCCC2)CN2CCC1CC2", "note": "(stereo partly drawn) [Compound 124, 1-cycloheptyl-1-(2-fluoro-3-pyridinyl)-3-[(3R)-3-methoxy-1-azabicyclo[2.2.2]oct-3-yl]-2-propyn-1-ol]", "affinity (in words)": "High affinities"},
      {"smiles": "COC1(C#CC(C#N)(c2ccccc2)c2ccccc2)CN2CCC1CC2", "note": "(racemic) [Compound 64, 4-(3-methoxy-1-azabicyclo[2.2.2]oct-3-yl)-2,2-diphenyl-3-butynenitrile]", "affinity (in words)": "High affinities"},
      {"smiles": "CO[C@]1(C#CC(O)(c2ccccc2)C2CC3CCC(C2)S3)CN2CCC1CC2", "note": "(stereo partly drawn) [Compound 177, 3-[(3R)-3-methoxy-1-azabicyclo[2.2.2]oct-3-yl]-1-phenyl-1-(8-thiabicyclo[3.2.1]oct-3-yl)-2-propyn-1-ol]", "affinity (in words)": "High affinities"},
      {"smiles": "CO[C@]1(C#CC(O)(c2ccccc2)C23CC4CC(CC(C4)C2)C3)CN2CCC1CC2", "note": "(stereo partly drawn) [Compound 162, 1-(1-adamantyl)-3-[(3R)-3-methoxy-1-azabicyclo[2.2.2]oct-3-yl]-1-phenyl-2-propyn-1-ol]", "affinity (in words)": "High affinities"},
      {"smiles": "CO[C@]1(C#CC(F)(c2ccccc2)C2CCCCC2)CN2CCC1CC2", "note": "(stereo partly drawn) [Compound 113, (3R)-3-(3-cyclohexyl-3-fluoro-3-phenyl-1-propynyl)-3-methoxy-1-azabicyclo[2.2.2]octane]", "affinity (in words)": "High affinities"},
      {"smiles": "C=CCCC(O)(C#C[C@@]1(OC)CN2CCC1CC2)c1ccccc1", "note": "(stereo partly drawn) [Compound 169, 1-[(3R)-3-methoxy-1-azabicyclo[2.2.2]oct-3-yl]-3-phenyl-6-hepten-1-yn-3-ol]", "affinity (in words)": "High affinities"},
      {"smiles": "CO[C@]1(C#CC(O)(c2cccs2)c2cccs2)C[N+]2(C)CCC1CC2.[I-]", "note": "[Compound 155, (3R)-3-[3-hydroxy-3,3-di(2-thienyl)-1-propynyl]-3-methoxy-1-methyl-1-azoniabicyclo[2.2.2]octane iodide]", "affinity (in words)": "High affinities"},
      {"smiles": "CO[C@]1(C#CC(O)(c2ccccc2)c2cccc(C)c2)CN2CCC1CC2", "note": "(stereo partly drawn) [Compound 72, 3-[(3R)-3-methoxy-1-azabicyclo[2.2.2]oct-3-yl]-1-(3-methylphenyl)-1-phenylprop-2-yn-1-ol]", "affinity (in words)": "High affinities"},
      {"smiles": "CO[C@]1(C#CC(O)(c2ccccc2)C2CCCCCCC2)CN2CCC1CC2", "note": "(stereo partly drawn) [Compound 89, 1-cyclooctyl-3-[(3R)-3-methoxy-1-azabicyclo[2.2.2]oct-3-yl]-1-phenyl-2-propyn-1-ol]", "affinity (in words)": "High affinities"},
      {"smiles": "CO[C@]1(C#CC(O)(CC2CCCC2)c2cccs2)CN2CCC1CC2", "note": "(stereo partly drawn) [Compound 188, 1-cyclopentyl-4-[(3R)-3-methoxy-1-azabicyclo[2.2.2]oct-3-yl]-2-(2-thienyl)-3-butyn-2-ol]", "affinity (in words)": "High affinities"},
      {"smiles": "CCC(CC)C(O)(C#C[C@@]1(OC)CN2CCC1CC2)c1ccccc1", "note": "(stereo partly drawn) [Compound 168, 4-ethyl-1-[(3R)-3-methoxy-1-azabicyclo[2.2.2]oct-3-yl]-3-phenyl-1-hexyn-3-ol]", "affinity (in words)": "High affinities"},
      {"smiles": "CO[C@]1(C#CC(O)(c2ccccc2)C2CCCCCCC2)CN2CCC1CC2", "note": "(stereo partly drawn) [Compound 90, 1-cyclooctyl-3-[(3R)-3-methoxy-1-azabicyclo[2.2.2]oct-3-yl]-1-phenyl-2-propyn-1-ol]", "affinity (in words)": "High affinities"},
      {"smiles": "CO[C@]1(C#CC(O)(c2ccccc2)C2CCCCCC2)CN2CCC1CC2", "note": "(stereo partly drawn) [Compound 116, 1-cycloheptyl-3-[(3R)-3-methoxy-1-azabicyclo[2.2.2]oct-3-yl]-1-phenyl-2-propyn-1-ol]", "affinity (in words)": "High affinities"},
      {"smiles": "CO[C@]1(C#CC(O)(c2ccccc2)C2CCCCCCC2)CN2CCC1CC2", "note": "(stereo partly drawn) [Compound 91, 1-cyclooctyl-3-[(3R)-3-methoxy-1-azabicyclo[2.2.2]oct-3-yl]-1-phenyl-2-propyn-1-ol]", "affinity (in words)": "High affinities"},
      {"smiles": "CO[C@]1(C#CC(O)(c2ccccc2)C2CC3CCC(C3)C2)CN2CCC1CC2", "note": "(stereo partly drawn) [Compound 176, 1-bicyclo[3.2.1]oct-3-yl-3-[(3R)-3-methoxy-1-azabicyclo[2.2.2]oct-3-yl]-1-phenyl-2-propyn-1-ol]", "affinity (in words)": "High affinities"},
      {"smiles": "CO[C@]1(C#CC(O)(c2ccccc2)C2CCSCC2)CN2CCC1CC2", "note": "(stereo partly drawn) [Compound 174, 3-[(3R)-3-methoxy-1-azabicyclo[2.2.2]oct-3-yl]-1-phenyl-1-tetrahydro-2H-thiopyran-4-yl-2-propyn-1-ol]", "affinity (in words)": "High affinities"},
      {"smiles": "CO[C@]1(C#CC(O)(c2ccccc2)C2CCSCC2)CN2CCC1CC2", "note": "(stereo partly drawn) [Compound 173, 3-[(3R)-3-methoxy-1-azabicyclo[2.2.2]oct-3-yl]-1-phenyl-1-tetrahydro-2H-thiopyran-4-yl-2-propyn-1-ol]", "affinity (in words)": "High affinities"}
    ]},
    {"test_system": "muscarinic", "settings": "cited from earlier work", "values": [
      {"smiles": "OC(C#CC1CN2CCC1CC2)(c1ccccc1)c1ccccc1", "note": "(stereo not drawn) [Alpha-(1-azabicyclo[2.2.2]oct-3-ylethynyl)-alpha-phenyl benzenemethanol]", "muscarinic anticholinergic activity": "marked muscarinic anticholinergic activity"}
    ]}
  ]
}
